Measurements from patent US9873717B2, “TRH binding site in human CNS” (THE PROVOST, FELLOWS, FOUNDATION SCHOLARS, AND THE OTHER …, priority 2012, dated 2018).
Entries after “also recorded” stand apart in the source; their conditions may differ. Read-outs that look alike come from different tables or passages of the source. Non-standard residues stand in square brackets, D forms with d. Residues, ends and D or L forms follow the SMILES beside them. *: point of attachment. AMC = Cc1cc(=O)oc2cc(N*)ccc12; pGlu = O=C1CC[C@@H](C(=O)O)N1

Assays:
[1] = biological target: [^3H][3-Me-His^2]TRH-labelled native TRH receptors in rat cortical membranes; conditions: cited from earlier work
[2] = biological target: T1, TRH receptors in rat pituitary tissue (Rattus norvegicus, UniProt Q01717); conditions: cited from earlier work
T1 construct: host or cells: rat pituitary tissue
T1 sequence (Q01717 1-412): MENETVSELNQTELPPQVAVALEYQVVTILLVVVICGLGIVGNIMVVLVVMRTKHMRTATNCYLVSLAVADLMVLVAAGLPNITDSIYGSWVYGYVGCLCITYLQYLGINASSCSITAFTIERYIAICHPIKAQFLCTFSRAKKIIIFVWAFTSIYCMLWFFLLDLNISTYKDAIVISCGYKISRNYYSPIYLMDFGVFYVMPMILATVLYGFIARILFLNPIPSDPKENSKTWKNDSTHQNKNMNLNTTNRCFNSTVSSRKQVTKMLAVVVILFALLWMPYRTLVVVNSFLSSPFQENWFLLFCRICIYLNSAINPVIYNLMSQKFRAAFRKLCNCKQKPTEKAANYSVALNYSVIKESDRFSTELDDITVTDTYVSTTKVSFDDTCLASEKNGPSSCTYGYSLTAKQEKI

[3] = biological target: TRH receptors in human amygdala; conditions: saturable binding; prior studies; read-out: Kd of radioligand binding in human amygdala; cited from earlier work
[4] = biological target: [^3H][3-Me-His^2]TRH-labelled native TRH receptors in rat cortical membranes; test: Displacement of [3H][3-Me-His2]TRH, native rat cortical membranes; type: binding; conditions: native rat tissue; N = 3-6
[5] = biological target: [^3H][3-Me-His^2]TRH-labelled native TRH receptors in rat hippocampal membranes; test: Displacement of [3H][3-Me-His2]TRH, native rat hippocampal membranes; type: binding; conditions: native rat tissue; N = 3-6
[6] = biological target: T2, TRHR1 (GH4 pituitary cell line, naturally expresses TRHR1) (Rattus norvegicus, UniProt Q01717); test: Displacement of [3H][3-Me-His2]TRH, GH4 cell membranes; type: binding; conditions: N = 2; read-out: IC50, displacement of [^3H][3-Me-His^2]TRH, GH4 cell membranes
T2 construct: a GH4 pituitary cell line, which naturally expresses TRHR1; endogenous in cells; host or cells: GH4 pituitary cell membranes
T2 sequence (Q01717 1-412): T1 sequence (Q01717 1-412)

TRHR1 [7] = test: Displacement of [3H][3-Me-His2]TRH, membranes from CHO cells transfected with TRHR1; type: binding; conditions: N = 2; read-out: IC50, displacement of [^3H][3-Me-His^2]TRH, membranes from Chinese Hamster Ovary cells transfected with TRHR1
[8] = test system: TRH receptors in human CNS tissue (cortical, hippocampal, spinal cord); test: Competition binding with [3H][3-Me-His2]TRH, human CNS tissue membranes; conditions: for IC50: 5 h at 4° C.
Procedure: Competition binding assays using human tissue prepared from individual donors with no history of neurological disease were carried out essentially as previously described (Kelly et al., 2002; Scalabrino et al., 2007; […] Separation of bound and free ligand was achieved by vacuum filtration through GF/C or GF/B filters, followed by washing with 3×5 ml of ice-cold NaCl or Tris-HCl buffer. The radioactivity retained on the filters was measured by liquid scintillation counting.

[9] = biological target: T3, TRH receptors in human pituitary tissue (Homo sapiens, UniProt P34981); test: Competition binding with [3H][3-Me-His2]TRH, human pituitary tissue membranes
T3 construct: from tissue; host or cells: human pituitary membranes from individual donors
T3 sequence (P34981 1-398): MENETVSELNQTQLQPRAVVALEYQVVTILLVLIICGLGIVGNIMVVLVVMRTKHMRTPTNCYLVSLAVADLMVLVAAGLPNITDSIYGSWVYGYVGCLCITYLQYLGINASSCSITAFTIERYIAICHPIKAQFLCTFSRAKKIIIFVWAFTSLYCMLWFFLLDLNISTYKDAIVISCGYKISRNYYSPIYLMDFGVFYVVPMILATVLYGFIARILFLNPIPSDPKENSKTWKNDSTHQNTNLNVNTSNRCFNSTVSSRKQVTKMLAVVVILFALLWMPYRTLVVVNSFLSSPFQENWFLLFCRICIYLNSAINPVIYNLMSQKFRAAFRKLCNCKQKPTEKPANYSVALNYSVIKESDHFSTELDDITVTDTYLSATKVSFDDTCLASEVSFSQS
Procedure: To investigate the binding of Glp-Asn-Pro-D-Tyr-D-TrpNH2 in human tissue, radioligand binding studies were carried out employing [^3H][3-Me-His^2]TRH to label TRH receptors in cortical, hippocampal, spinal cord and pituitary tissue membranes from human tissue.
Competition binding assays using human tissue prepared from individual donors with no history of neurological disease were carried out essentially as previously described (Kelly et al., 2002; Scalabrino et al., 2007; Hogan et al., 2008) by incubating membrane suspension, [^3H][3-Me-His^2]TRH, and increasing concentrations of peptide for 5 h at 4° C. Non-specific binding (NSB) was determined in the presence of 10 μM TRH. Separation of bound and free ligand was achieved by vacuum filtration through GF/C or GF/B filters, followed by washing with 3×5 ml of ice-cold NaCl or Tris-HCl buffer. The radioactivity retained on the filters was measured by liquid scintillation counting.

[10] = test system: [^3H][3-Me-His^2]TRH-labelled native TRH receptors in rat hippocampal membranes; conditions: Scalabrino 2007, Hogan 2008; cited from earlier work
[11] = biological target: T2, TRHR1 (GH4 pituitary cell line, naturally expresses TRHR1); conditions: Scalabrino 2007, Hogan 2008; cited from earlier work
TRHR1 [12] = conditions: Scalabrino 2007, Hogan 2008; cited from earlier work
TRHR2 = biological target: T4, TRHR2 (Rattus norvegicus, UniProt A6IZR3); conditions: Scalabrino 2007, Hogan 2008; cited from earlier work
T4 construct: host or cells: CHO cells expressing TRHR2
T4 sequence (A6IZR3 1-352): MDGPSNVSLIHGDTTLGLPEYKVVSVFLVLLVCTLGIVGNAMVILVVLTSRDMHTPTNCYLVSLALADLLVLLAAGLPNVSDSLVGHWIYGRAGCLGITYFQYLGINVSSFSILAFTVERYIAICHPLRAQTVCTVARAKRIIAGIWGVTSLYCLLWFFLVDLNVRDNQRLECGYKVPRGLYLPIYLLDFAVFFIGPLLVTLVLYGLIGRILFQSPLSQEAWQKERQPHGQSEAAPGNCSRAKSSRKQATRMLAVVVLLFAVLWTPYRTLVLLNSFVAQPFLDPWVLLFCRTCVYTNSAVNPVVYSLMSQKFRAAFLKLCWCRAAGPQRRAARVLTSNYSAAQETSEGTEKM

[13] = human CNS tissue, read-out: IC50, displacement of [^3H][3-Me-His^2]TRH from CNS tissue

Molecule | Ki [4] [nM] | Ki [5] [nM] | IC50 [6] [nM] | IC50 (TRHR1 [7]) [nM] | also measured
[^3H][3-Me-His^2]TRH |  |  |  |  | Kd ([1]; single population of high affinity sites, prior studies, read-out: Kd of radioligand binding, rat brain cortical membranes): ~5 nM; Kd ([2]; single population of high-affinity sites, prior studies, read-out: Kd of radioligand binding, rat pituitary tissue): 2.2 nM; Kd [3]: 7 to 10 nM
NC(=O)C[C@H](NC(=O)[C@@H]1CCC(=O)N1)C(=O)N1CCC[C@H]1C(=O)N[C@H](Cc1ccc(O)cc1)C(=O)N[C@H](Cc1c[nH]c2ccccc12)C(N)=O [Glp-Asn-Pro-D-Tyr-D-TrpNH2] ([pGlu]NP[dY][dW]-NH2) | 6.8 | 11 | > 100000 | > 100000 | displacement of [^3H][3-Me-His^2]TRH binding from human CNS tissue (in words) ([8]; human CNS tissue): found to displace; IC50 [8, 13]: ~100 nM; binding to TRH receptors in human brain and spinal cord (in words) ([8]; human brain and spinal cord): binds; IC50 ([8]; human hippocampal membranes, read-out: IC50, displacement of [^3H][3-Me-His^2]TRH from hippocampal membranes): ~10 nM; binding to TRH receptors in human pituitary (in words) ([9]; human pituitary): not pituitary; displacement of [^3H][3-Me-His^2]TRH binding from human pituitary (in words) ([9]; human pituitary membranes): does not displace; also recorded: did not displace; affinity for [^3H][3-Me-His^2]TRH-labelled native TRH receptors, rat cortical tissue homogenate (in words) ([1]; Scalabrino 2007, Hogan 2008): high affinity; affinity for [^3H][3-Me-His^2]TRH-labelled native TRH receptors, rat hippocampal tissue homogenate (in words) [10]: high affinity; displacement of [^3H][3-Me-His^2]TRH binding from GH4 membranes (in words) [11]: does not displace; displacement of [^3H][3-Me-His^2]TRH binding from CHO-TRHR1 membranes (in words) (TRHR1 [12]): does not displace; displacement of [^3H][3-Me-His^2]TRH binding from native rat pituitary tissue (in words) ([2]; Scalabrino 2007, Hogan 2008): does not displace; displacement of [^3H][3-Me-His^2]TRH binding from CHO-TRHR2 membranes (in words) (TRHR2): does not displace
NC(=O)C[C@H](NC(=O)[C@@H]1CCC(=O)N1)C(=O)N1CCC[C@H]1C(=O)N[C@@H](Cc1ccc(O)cc1)C(=O)N[C@@H](Cc1c[nH]c2ccccc12)C(N)=O [Glp-Asn-Pro-LTyr-LTrp-NH2] ([pGlu]NPYW-NH2) | 110 | 120 | > 100000 | > 100000 | 
Cn1cnc(C[C@H](NC(=O)[C@@H]2CCC(=O)N2)C(=O)N2CCC[C@H]2C(N)=O)c1 [[3-Me-His2]TRH, reference compound] | 74 | 34 | 11.2 | 17.5 | 
NC(=O)[C@@H]1CCCN1C(=O)[C@H](Cc1cnc[nH]1)NC(=O)[C@@H]1CCC(=O)N1 [TRH, Thyrotropin releasing hormone, reference compound] |  |  |  |  | IC50 [8, 13]: ~10 nM; IC50 ([9]; human pituitary, 5 h at 4° C., read-out: IC50, displacement of [^3H][3-Me-His^2]TRH from pituitary tissue): ~10 nM; Ki ([1]; prior studies, read-out: Ki, competition for [^3H][3-Me-His^2]TRH sites on rat brain cortical membranes): ~25 nM
Cc1cc(=O)oc2cc(NC(=O)[C@H](Cc3c[nH]c4ccccc34)NC(=O)[C@H](Cc3c[nH]c4ccccc34)NC(=O)[C@H](Cc3ccc(O)cc3)NC(=O)[C@@H]3CCCN3C(=O)[C@H](CC(N)=O)NC(=O)[C@@H]3CCC(=O)N3)ccc12 [Glp-Asn-Pro-LTyr-LTrp-LTrp-AMC] ([pGlu]NPYWW-{AMC}) |  | 8.8 | > 100000 |  | 
Cc1cc(=O)oc2cc(NC(=O)[C@H](Cc3c[nH]c4ccccc34)NC(=O)[C@H](Cc3ccc(O)cc3)NC(=O)[C@@H]3CCCN3C(=O)[C@H](CC(N)=O)NC(=O)[C@@H]3CCC(=O)N3)ccc12 [Glp-Asn-Pro-LTyr-LTrp-AMC] ([pGlu]NPYW-{AMC}) | 330 | 80 | > 100000 |  | 
Cc1cc(=O)oc2cc(NC(=O)[C@@H](Cc3c[nH]c4ccccc34)NC(=O)[C@@H](Cc3ccc(O)cc3)NC(=O)[C@@H]3CCCN3C(=O)[C@H](CC(N)=O)NC(=O)[C@@H]3CCC(=O)N3)ccc12 [Glp-Asn-Pro-DTyr-DTrp-AMC] ([pGlu]NP[dY][dW]-{AMC}) | 1.7 | 22 | > 100000 |  | 
Cc1cc(=O)oc2cc(NC(=O)[C@@H](Cc3c[nH]c4ccccc34)NC(=O)[C@@H](Cc3c[nH]c4ccccc34)NC(=O)[C@@H](Cc3ccc(O)cc3)NC(=O)[C@@H]3CCCN3C(=O)[C@H](CC(N)=O)NC(=O)[C@@H]3CCC(=O)N3)ccc12 [Glp-Asn-Pro-DTyr-DTrp-DTrp-AMC] ([pGlu]NP[dY][dW][dW]-{AMC}) | 25 | 30 | > 100000 |  | 
